# Reference: patent US8940310B2, “Methods of treatment using TLR7 and/or TLR9 inhibitors” (Dynavax Technologies Corporation, priority 2010, dated 2015)
# [I] = hypoxanthine (inosine); d = 2'-deoxy (DNA); m = 2'-O-methyl
# Test system: human B-cells
# Experiment: Human B-cells cultured in the presence of IRPs, IL-6
# [1] = Experiment # 1, Max Conc 4.0 uM
# [2] = Experiment # 9, Max Conc 2.0 uM
# [3] = Experiment # 5, Max Conc 4.0 uM
# [4] = Experiment # 6, Max Conc 4.0 uM
# [5] = Experiment # 10, Max Conc 2.0 uM
# [6] = Experiment # 2, Max Conc 4.0 uM
# [7] = Experiment # 8, Max Conc 2.0 uM
# [8] = Experiment # 11, Max Conc 2.0 uM
# [9] = Experiment # 4, Max Conc 4.0 uM
# [10] = Experiment # 7, Max Conc 4.0 uM
substance,measurement,setting,value
"5′-TGC TTG TCC TGG AGI GGT GTT GT-3′ (DNA TGCTTGTCCTGGAGNGGTGTTGT; DNA, [I] at 15, backbone not given here) [SEQ ID NO:65]",Normalized IL-6 Response (Percentage of Positive Control),[1],38%
same,Normalized IL-6 Response (Percentage of Positive Control),[2],21%
"5′-UGC TGC TCC TTG AGI GG (DNA UGCTGCTCCTTGAGNGG; sugars from the 5' end m3 d14, [I] at 15, backbone not given here) [SEQ ID NO:117]",Normalized IL-6 Response (Percentage of Positive Control),[3],17%
same,Normalized IL-6 Response (Percentage of Positive Control),[4],13%
"5′-UGC TGC TCC TGG AGI GGT TGT AAG T (DNA UGCTGCTCCTGGAGNGGTTGTAAGT; sugars from the 5' end m3 d22, [I] at 15, backbone not given here) [SEQ ID NO:130]",Normalized IL-6 Response (Percentage of Positive Control),[5],49%
"5′-TGC TTG TCC TGG AGI GGT TGT-3′ (DNA TGCTTGTCCTGGAGNGGTTGT; DNA, [I] at 15, backbone and methylation of C not given here) [SEQ ID NO:74]",Normalized IL-6 Response (Percentage of Positive Control),[1],21%
same,Normalized IL-6 Response (Percentage of Positive Control),[6],25%
same,Normalized IL-6 Response (Percentage of Positive Control),[2],23%
"5′-TGC TTG TCC TGG AGI GGT TGT AAG T-3′ (DNA TGCTTGTCCTGGAGNGGTTGTAAGT; DNA, [I] at 15, backbone and methylation of C not given here) [SEQ ID NO:64]",Normalized IL-6 Response (Percentage of Positive Control),[1],33%
same,Normalized IL-6 Response (Percentage of Positive Control),[7],19%
"5′-TGC TGC TCC TGG AGI GGT TGT AAG T-3′ (DNA TGCTGCTCCTGGAGNGGTTGTAAGT; DNA, [I] at 15, backbone and methylation of C not given here) [SEQ ID NO:78]",Normalized IL-6 Response (Percentage of Positive Control),[1],26%
same,Normalized IL-6 Response (Percentage of Positive Control),[8],29%
"5′-TGCTGCTCCTTGAGGGGTTGT-3′ (DNA TGCTGCTCCTTGAGGGGTTGT; DNA, backbone and methylation of C not given here; further chemistry not fully specified) [SEQ ID NO:59]",Normalized IL-6 Response (Percentage of Positive Control),[9],12%
same,Normalized IL-6 Response (Percentage of Positive Control),[10],12%
"5′-UGC CAA TCC TGG AGI GGT GTT GT (DNA UGCCAATCCTGGAGNGGTGTTGT; sugars from the 5' end m3 d20, [I] at 15, backbone not given here) [SEQ ID NO:135]",Normalized IL-6 Response (Percentage of Positive Control),[7],42%
"5′-TGCTGCTCCTGGAGGGGTTGT-3′ (DNA TGCTGCTCCTGGAGGGGTTGT; DNA, backbone and methylation of C not given here; further chemistry not fully specified) [SEQ ID NO:60]",Normalized IL-6 Response (Percentage of Positive Control),[9],10%
same,Normalized IL-6 Response (Percentage of Positive Control),[10],10%
"5′-UGC TGC TCC TTG AGI GGT TGT (DNA UGCTGCTCCTTGAGNGGTTGT; sugars from the 5' end m3 d18, [I] at 15, backbone not given here) [SEQ ID NO:114]",Normalized IL-6 Response (Percentage of Positive Control),[9],40%
same,Normalized IL-6 Response (Percentage of Positive Control),[3],39%
same,Normalized IL-6 Response (Percentage of Positive Control),[4],39%
same,Normalized IL-6 Response (Percentage of Positive Control),[10],40%
"5′-UGC TGC TCC TTG AGI GGT TGT (DNA UGCTGCTCCTTGAGNGGTTGT; sugars from the 5' end m3 d18, [I] at 15, backbone not given here) [SEQ ID NO:127]",Normalized IL-6 Response (Percentage of Positive Control),[5],46%
"5′-TGCTTGTCCTGGAGGGGTTGT-3′ (DNA, backbone not given here; further chemistry not fully specified) [SEQ ID NO:43]",Normalized IL-6 Response (Percentage of Positive Control),[10],9%
"5′-UGCTTGTCCTGGAGGGGTTGT (DNA NNNTTGTCCTGGAGGGGTTGT; listed as DNA, chemistry not fully specified) [SEQ ID NO:87]",Normalized IL-6 Response (Percentage of Positive Control),[3],16%
same,Normalized IL-6 Response (Percentage of Positive Control),[4],12%
"5′TGC TCC TTG AGI GGT TGT TTG T-3′ (DNA TGCTCCTTGAGNGGTTGTTTGT; DNA, [I] at 12, backbone not given here) [SEQ ID NO:63]",Normalized IL-6 Response (Percentage of Positive Control),[9],46%
same,Normalized IL-6 Response (Percentage of Positive Control),[3],48%
same,Normalized IL-6 Response (Percentage of Positive Control),[4],41%
same,Normalized IL-6 Response (Percentage of Positive Control),[10],46%
"5′-TGCTCCTGGAGGGGTTGTAAGT-3′ (DNA TGCTCCTGGAGGGGTTGTAAGT; DNA, backbone and methylation of C not given here; further chemistry not fully specified) [SEQ ID NO:67]",Normalized IL-6 Response (Percentage of Positive Control),[9],8%
same,Normalized IL-6 Response (Percentage of Positive Control),[3],7%
same,Normalized IL-6 Response (Percentage of Positive Control),[4],4%
same,Normalized IL-6 Response (Percentage of Positive Control),[10],8%
"5′-UGC TTG TCC TGG AGI GGT TGT (DNA UGCTTGTCCTGGAGNGGTTGT; sugars from the 5' end m3 d18, [I] at 15, backbone not given here) [SEQ ID NO:123]",Normalized IL-6 Response (Percentage of Positive Control),[6],35%
same,Normalized IL-6 Response (Percentage of Positive Control),[2],35%
"5′-UGC TCC TGG AGG GGU UGU (DNA UGCTCCTGGAGGGGUUGU; sugars from the 5' end m3 d11 m4, backbone not given here) [SEQ ID NO:85]",Normalized IL-6 Response (Percentage of Positive Control),[9],18%
same,Normalized IL-6 Response (Percentage of Positive Control),[10],18%
"5′-TGC TCC TTG AGI GGT TGT-3′ (DNA TGCTCCTTGAGNGGTTGT; DNA, [I] at 12, backbone not given here) [SEQ ID NO:71]",Normalized IL-6 Response (Percentage of Positive Control),[9],12%
same,Normalized IL-6 Response (Percentage of Positive Control),[3],15%
same,Normalized IL-6 Response (Percentage of Positive Control),[4],10%
same,Normalized IL-6 Response (Percentage of Positive Control),[10],12%
same,Normalized IL-6 Response (Percentage of Positive Control),[7],4%
same,Normalized IL-6 Response (Percentage of Positive Control),[2],14%
"5′-TGCTGCTCCTTGAGGGGTTGTTTGT-3′ (DNA TGCTGCTCCTTGAGGGGTTGTTTGT; DNA, backbone and methylation of C not given here; further chemistry not fully specified) [SEQ ID NO:58]",Normalized IL-6 Response (Percentage of Positive Control),[3],33%
same,Normalized IL-6 Response (Percentage of Positive Control),[4],29%
"5′-TGC TCC TTG AGG GGT TGT-3′ (DNA TGCTCCTTGAGGGGTTGT; DNA, backbone not given here; further chemistry not fully specified) [SEQ ID NO:69]",Normalized IL-6 Response (Percentage of Positive Control),[9],11%
same,Normalized IL-6 Response (Percentage of Positive Control),[10],11%
"5′-TGC TGC TCC TTG AGI GGT GTT GT (DNA TGCTGCTCCTTGAGNGGTGTTGT; DNA, [I] at 15, backbone not given here) [SEQ ID NO:179]",Normalized IL-6 Response (Percentage of Positive Control),[8],40%
"5′-TGC TCC TGG AGG GGT TGT-HEG-HEG-3′ (DNA TGCTCCTGGAGGGGTTGTNN; 3' HEG-HEG, chemistry not fully specified) [SEQ ID NO:141]",Normalized IL-6 Response (Percentage of Positive Control),[9],8%
same,Normalized IL-6 Response (Percentage of Positive Control),[10],8%
"5′-UGCTGCTCCTTGAGGGGTTGUU UG U (DNA UGCTGCTCCTTGAGGGGTTGUUUGU; sugars from the 5' end m3 d16 m6, backbone not given here) [SEQ ID NO:104]",Normalized IL-6 Response (Percentage of Positive Control),[9],7%
same,Normalized IL-6 Response (Percentage of Positive Control),[10],7%
